Experimental findings from ChEMBL document CHEMBL4431390, “Dual action Smac mimetics-zinc chelators as pro-apoptotic antitumoral agents” (Bioorg Med Chem Lett, 2016) are described below.

SMILES strings stand for the structures. Active and inactive are the calls of the source. No cut-off for these calls is given here.

The target of assay [1] is T1, E3 ubiquitin-protein ligase XIAP (Homo sapiens, UniProt P98170). Briefly: Binding affinity to XIAP BIR3 domain in Smac mimetic-resistant human BT549 cells assessed as increase in cleaved PARP expression at 5 uM after 24 hrs by Western blot analysis. For orientation: Immunoblotting shows a protein as a band on a membrane.
Assay [2] addresses T1, E3 ubiquitin-protein ligase XIAP. Briefly: Binding affinity to XIAP BIR3 domain in Smac mimetic-resistant human BT549 cells assessed as increase in cellular IAP1 degradation at 5 uM after 24 hrs by Western blot analysis.
Assay [3] shares this target. Briefly: Binding affinity to XIAP BIR3 domain in Smac mimetic-sensitive human MDA-MB-231 cells assessed as increase in cellular IAP1 degradation at 5 uM after 24 hrs by Western blot analysis. It is filed as cell-based.
Assay [4] shares this target. In words: Binding affinity to XIAP BIR3 domain in Smac mimetic-resistant human BT549 cells assessed as increase in cleaved caspase-3 expression at 5 uM after 24 hrs by Western blot analysis.
The target is the same in assay [5]. Briefly: Binding affinity to XIAP BIR3 domain in Smac mimetic-sensitive human MDA-MB-231 cells assessed as increase in cleaved PARP expression at 5 uM after 24 hrs by Western blot analysis. It is filed as cell-based.
The target is the same in assay [6]. In words: Binding affinity to XIAP BIR3 domain in Smac mimetic-resistant human MDA-MB-453 cells assessed as increase in cleaved PARP expression at 5 uM after 24 hrs by Western blot analysis. In kind it is cell-based.
Assay [7] shares this target. In words: Binding affinity to XIAP BIR3 domain in Smac mimetic-sensitive human MDA-MB-231 cells assessed as increase in cleaved caspase-3 expression at 5 uM after 24 hrs by Western blot analysis. In kind it is cell-based.
Assay [8] shares this target. In words: Binding affinity to XIAP BIR3 domain in Smac mimetic-resistant human MDA-MB-453 cells assessed as increase in cellular IAP1 degradation at 5 uM after 24 hrs by Western blot analysis. It is filed as cell-based.
For assay [9] the target is unchanged. Briefly: Binding affinity to XIAP BIR3 domain in Smac mimetic-resistant human MDA-MB-453 cells assessed as increase in cleaved caspase-3 expression at 5 uM after 24 hrs by Western blot analysis. In kind it is cell-based.
Assay [10] has the same target. Briefly: Displacement of FITC-Smac from human recombinant His-tagged XIAP BIR3 domain (241 to 356 residues) expressed in Escherichia coli BL21(DE3) cells after 3 hrs by fluorescence polarization assay.
For assay [11], the system named is MDA-MB-231. Briefly: Effect on XIAP level in Smac mimetic-sensitive human MDA-MB-231 cells at 5 uM after 24 hrs by Western blot analysis. It is filed as functional, cell-based.
Assay [12] concerns MDA-MB-453. In words: Cytotoxicity against Smac mimetic-resistant human MDA-MB-453 cells assessed as growth inhibition after 24 hrs by CellTiter-Glo assay. Conditions: MDA-MB-453, 24 h. In kind it is functional, cell-based. (ATP-based viability assays read luminescence as a measure of living cells.)
Assay [13] relates to BT-549. In words: Effect on XIAP level in Smac mimetic-resistant human BT549 cells at 5 uM after 24 hrs by Western blot analysis. It is filed as functional, cell-based.
Assay [14] concerns BT-549. In words: Cytotoxicity against Smac mimetic-resistant human BT549 cells assessed as growth inhibition after 24 hrs by CellTiter-Glo assay. To be noted: BT-549, 24 h. It is filed as functional, cell-based.
Assay [15] deals with MDA-MB-453. Briefly: Effect on XIAP level in Smac mimetic-resistant human MDA-MB-453 cells at 5 uM after 24 hrs by Western blot analysis. In kind it is functional, cell-based.
The test system of assay [16] is MDA-MB-231. Briefly: Cytotoxicity against Smac mimetic-sensitive human MDA-MB-231 cells assessed as growth inhibition after 24 hrs by CellTiter-Glo assay. It is filed as functional, cell-based. Conditions: MDA-MB-231, 24 h.
A short description of assay [17]: Metal chelating activity assessed as compound-Zn2+ complex formation. In kind it is functional.
Assay [18] is described as follows: Metal chelating activity assessed as compound-Zn2+ complex formation at 50 uM after 15 mins by spectrofluorimetric analysis. In kind it is functional.

T1 sequence (P98170 whole entry, the tested form may be a part): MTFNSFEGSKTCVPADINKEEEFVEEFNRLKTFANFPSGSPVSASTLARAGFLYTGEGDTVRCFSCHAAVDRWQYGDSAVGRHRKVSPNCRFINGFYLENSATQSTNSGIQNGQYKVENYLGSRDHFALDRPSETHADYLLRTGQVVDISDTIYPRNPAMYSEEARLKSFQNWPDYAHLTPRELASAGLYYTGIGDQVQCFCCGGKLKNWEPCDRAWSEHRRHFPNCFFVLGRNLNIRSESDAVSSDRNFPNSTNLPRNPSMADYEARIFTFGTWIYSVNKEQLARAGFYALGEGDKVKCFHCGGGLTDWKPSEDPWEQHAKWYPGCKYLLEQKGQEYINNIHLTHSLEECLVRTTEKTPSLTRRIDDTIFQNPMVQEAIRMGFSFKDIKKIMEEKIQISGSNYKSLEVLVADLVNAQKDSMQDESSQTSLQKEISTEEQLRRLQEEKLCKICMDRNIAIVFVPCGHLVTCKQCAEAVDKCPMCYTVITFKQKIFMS

For `CC[C@H](NC)C(=O)N[C@@H]1C(=O)N2[C@@H](CC[C@@H]1CNC(=O)c1ccccc1)CC[C@H]2C(=O)N[C@H](C(=O)NCCN(Cc1ccccn1)Cc1ccccn1)c1ccccc1`, the outcome in assay [1], in [2], in assay [3], in assay [4], in assay [5] and in [7] was Active. For the same compound, the result in assay [8] was Active. Besides, the result in [6] and in [9] was inactive. Moreover, the IC50 (as a rule, the point on the concentration scale where inhibition reaches its midpoint) in [10] is 0.091 µM.
Turning to `CC[C@H](NC)C(=O)N[C@@H]1C(=O)N2[C@@H](CC[C@@H]1CNC(=O)c1ccccc1)CC[C@H]2C(=O)N[C@H](C(=O)N(Cc1ccccn1)Cc1ccccn1)c1ccccc1`, the result in [3], in assay [5], in assay [7] and in assay [8] was Active. The result in [6] and in assay [9] was inactive. In assay [10], the IC50 stood at 0.37 µM.
For the compound `CC[C@H](NC)C(=O)N[C@@H]1C(=O)N2[C@@H](CC[C@@H]1CNC(=O)c1ccccc1)CC[C@H]2C(=O)N[C@@H](C(=O)N(Cc1ccccn1)Cc1ccccn1)c1ccccc1`, the result in assay [3], in assay [5] and in assay [7] was inactive. Besides, the IC50 in [10] was greater than 10 µM.
In the case of `C=CCc1cccc(/C=N/NC(=O)CN2CCN(Cc3ccccc3)CC2)c1O` [PAC-1], the result (with MDA-MB-231 [11]; in [3]; in assay [5]; with BT-549 [13]; in [7]; in the assay with MDA-MB-453 [15]) was inactive. For the same compound, the IC50 was 2 µM in the assay on MDA-MB-453 [12], 14.3 µM in the assay on BT-549 [14], greater than 10 µM in assay [10] and 4.7 µM in the assay with MDA-MB-231 [16].
Take `CC[C@H](NC)C(=O)N[C@@H]1C(=O)N2[C@@H](CC[C@@H]1CNC(=O)c1ccccc1)CC[C@H]2C(=O)NC(c1ccccc1)c1ccccc1`: the outcome in assay [1], in assay [2], in [3], in assay [4], in assay [5] and in assay [7] was Active. The result in assay [8] was Active. The outcome (with MDA-MB-231 [11]; in the assay on BT-549 [13]; in assay [6]; in the assay with MDA-MB-453 [15]; in assay [9]) was inactive. Further, the results for the IC50 with MDA-MB-453 [12], in the assay with BT-549 [14] and in the assay with MDA-MB-231 [16] were greater than 25 µM, greater than 25 µM and 2.3 µM, respectively.
Consider `c1ccc(CN(CCN(Cc2ccccn2)Cc2ccccn2)Cc2ccccn2)nc1`, for which the Kd – broadly, the concentration at which binding is half-saturated – in assay [17] worked out at 3e-07 nM.
Regarding `c1ccc(CNCc2ccccn2)nc1`, the Kd in [17] amounted to 210 nM. In [18], the result was Active.
As to `C=CCc1cccc(/C=N/NC(=O)[C@@H](NC(=O)[C@@H]2CC[C@@H]3CC[C@H](CCNC(=O)c4ccccc4)[C@H](NC(=O)[C@H](CC)NC)C(=O)N32)c2ccccc2)c1O`, the result in assay [2], in assay [3], in assay [5], in assay [7] and in assay [8] was Active. Further, the result in assay [6] and in assay [9] was inactive. Further, the IC50 in assay [10] came out at 1.09 µM.
In the case of `CC[C@H](NC)C(=O)N[C@@H]1C(=O)N2[C@@H](CC[C@@H]1CNC(=O)c1ccccc1)CC[C@H]2C(=O)N[C@@H](C(=O)NCCN(Cc1ccccn1)Cc1ccccn1)c1ccccc1`, the outcome in assay [3], in assay [5] and in assay [7] was inactive. In addition, the concentration for half-maximal inhibition (IC50) in assay [10] is greater than 10 µM.
For the compound `CC[C@H](NC)C(=O)N[C@@H]1C(=O)N2[C@@H](CC[C@@H]1CNC(=O)c1ccccc1)CC[C@H]2C(=O)N(Cc1ccccn1)Cc1ccccn1`, the outcome in [3], in assay [5] and in assay [7] was inactive. The IC50 in assay [10] is greater than 10 µM.
